Data from ChEMBL document CHEMBL1201862, “PubChem BioAssay data set” (2004).
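Briefly, cells in 96-well plates were exposed to five compound concentrations for 48 h, and endpoints were estimated by linear interpolation. At the GI50, growth is halved.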 Activity calls are given as the source filed them. Rule as the data show it: active = GI50 up to about 1.1 µM and inactive = higher.

Key:
Assay in all cases: growth of human tumour cells (NCI), 48 h
NCI-H226 = system: NCI-H226
A498 = system: A498
UACC-62 = system: UACC-62
COLO 205 = system: COLO 205
NCI/ADR-RES = system: NCI/ADR-RES
HCC 2998 = system: HCC 2998
SF-539 = system: SF-539
SN12C = system: SN12C
Malme-3M = system: Malme-3M
MDA-MB-231 = system: MDA-MB-231
LOX IMVI = system: LOX IMVI
OVCAR-5 = system: OVCAR-5
SK-MEL-5 = system: SK-MEL-5
U-251 = system: U-251
NCI-H23 = system: NCI-H23
NCI-H522 = system: NCI-H522
IGROV-1 = system: IGROV-1
HT-29 = system: HT-29
MDA-N = system: MDA-N

Compound | GI50 (NCI-H226) | GI50 (A498) | GI50 (UACC-62) | GI50 (COLO 205) | GI50 (NCI/ADR-RES) | GI50 (HCC 2998) | GI50 (SF-539) | GI50 (SN12C) | GI50 (Malme-3M) | GI50 (MDA-MB-231) | GI50 (LOX IMVI) | GI50 (OVCAR-5) | GI50 (SK-MEL-5) | GI50 (U-251) | GI50 (NCI-H23) | GI50 (NCI-H522) | GI50 (IGROV-1) | GI50 (HT-29) | GI50 (MDA-N)
Cc1ccc(S(=O)(=O)c2ccc([N+](=O)[O-])o2)cc1 | 10.8 µM (inactive) | 17 µM (inactive) | 2.32 µM (inactive) | 0.916 µM (active) | 2.25 µM (inactive) | 4.83 µM (inactive) | 1.91 µM (inactive) | 7.73 µM (inactive) | 1.08 µM (active) | 2.21 µM (inactive) | 1.14 µM (inactive) | 2.01 µM (inactive) | 11 µM (inactive) | 5.48 µM (inactive) | 3.52 µM (inactive) | 0.185 µM (active) | 1.55 µM (inactive) | 1.7 µM (inactive) | 
N=c1oc2cc(O)ccc2cc1C(=O)NCc1ccccc1 | 32.8 µM (inactive) |  |  | 12.4 µM (inactive) | 19.7 µM (inactive) |  | 21.9 µM (inactive) | 19.5 µM (inactive) | 21.7 µM (inactive) | 24 µM (inactive) | 29.5 µM (inactive) | 53.7 µM (inactive) | 12.9 µM (inactive) | 18.7 µM (inactive) | 19.5 µM (inactive) | 16.3 µM (inactive) | 21.3 µM (inactive) | 18.8 µM (inactive) | 19.3 µM (inactive)
COc1cccc2c1C(=O)c1c(O)c3c(c(O)c1C2=O)C[C@@](O)(/C(C)=N/NC(=O)c1ccc(Cl)c(Cl)c1)C[C@@H]3OC1CC(N)C(O)C(C)O1 (some centres undefined) | 0.092 µM (active) | 1.22 µM (inactive) | 0.11 µM (active) | 0.176 µM (active) | 0.532 µM (active) | 0.146 µM (active) | 0.183 µM (active) | 0.101 µM (active) | 0.0237 µM (active) | 0.711 µM (active) | 0.0249 µM (active) | 0.374 µM (active) | 0.116 µM (active) | 0.0589 µM (active) | 0.0592 µM (active) | 0.223 µM (active) | 0.462 µM (active) | 0.071 µM (active) | 
CC1(C)CC2C(/C1=N/O)C1(C)CCCC2(C)C1O (centres undefined) | > 100 µM (inactive) |  | > 100 µM (inactive) | > 100 µM (inactive) | > 100 µM (inactive) |  |  | > 100 µM (inactive) | > 100 µM (inactive) |  | > 100 µM (inactive) | > 100 µM (inactive) | > 100 µM (inactive) | > 100 µM (inactive) | > 100 µM (inactive) | > 100 µM (inactive) | > 100 µM (inactive) | > 100 µM (inactive) | > 100 µM (inactive)
Cc1cccc(/C=N/NC(=S)Nc2ccc(Cl)cc2)n1 |  |  | 0.643 µM (active) | 0.658 µM (active) | 0.527 µM (active) | 7.8 µM (inactive) | 2.52 µM (inactive) | 3.4 µM (inactive) | 0.665 µM (active) | 0.897 µM (active) | 1.04 µM (active) | 15.7 µM (inactive) | 0.993 µM (active) | 2.19 µM (inactive) | 4.38 µM (inactive) | 0.177 µM (active) | 0.811 µM (active) | 1.03 µM (active) | 0.308 µM (active)
CC(=O)N(C(C)=O)n1c(-c2ccccc2)n[nH]c1=O |  |  | > 100 µM (inactive) | > 100 µM (inactive) | > 100 µM (inactive) | > 100 µM (inactive) | > 100 µM (inactive) | > 100 µM (inactive) |  | > 100 µM (inactive) | > 100 µM (inactive) | > 100 µM (inactive) | > 100 µM (inactive) | > 100 µM (inactive) | > 100 µM (inactive) | > 100 µM (inactive) | > 100 µM (inactive) | > 100 µM (inactive) | > 100 µM (inactive)
C[C@@H](O)CCC(=O)c1ccoc1 | > 100 µM (inactive) | > 100 µM (inactive) | > 100 µM (inactive) | > 100 µM (inactive) |  | > 100 µM (inactive) | > 100 µM (inactive) | > 100 µM (inactive) | > 100 µM (inactive) |  | > 100 µM (inactive) | > 100 µM (inactive) | > 100 µM (inactive) | > 100 µM (inactive) | > 100 µM (inactive) | > 100 µM (inactive) | > 100 µM (inactive) | > 100 µM (inactive) | 
CCn1ncc2c1nc(-c1ccccc1)c[n+]2[O-] |  |  | 6.15 µM (inactive) | > 100 µM (inactive) | > 100 µM (inactive) |  | > 100 µM (inactive) | > 100 µM (inactive) |  |  | 7.01 µM (inactive) | > 100 µM (inactive) |  |  | > 100 µM (inactive) | 90.4 µM (inactive) | > 100 µM (inactive) | > 100 µM (inactive) | 
O=C(O)CSCc1cc2c(O)c(c1)Cc1cc(CSCC(=O)O)cc(c1O)Cc1cc(CSCC(=O)O)cc(c1O)Cc1cc(CSCC(=O)O)cc(c1O)C2 | 89.5 µM (inactive) | > 100 µM (inactive) |  | > 100 µM (inactive) | > 100 µM (inactive) | > 100 µM (inactive) | > 100 µM (inactive) | > 100 µM (inactive) | > 100 µM (inactive) |  | > 100 µM (inactive) | > 100 µM (inactive) |  | > 100 µM (inactive) | > 100 µM (inactive) | > 100 µM (inactive) | > 100 µM (inactive) | > 100 µM (inactive) | > 100 µM (inactive)
Cc1cc(O)c(O)c(Oc2cc(C)cc(O)c2O)c1 | 18.4 µM (inactive) | > 100 µM (inactive) | 11.7 µM (inactive) | 20.1 µM (inactive) |  | 32 µM (inactive) | 23.3 µM (inactive) | 13.2 µM (inactive) | > 10 µM (inactive) | 20.3 µM (inactive) | 4.57 µM (inactive) | 34.2 µM (inactive) | 33.9 µM (inactive) | 9.79 µM (inactive) | 25.6 µM (inactive) | 15 µM (inactive) | 12.4 µM (inactive) | 20.8 µM (inactive) | 18.7 µM (inactive)
Cc1c(Cc2ccccc2)n(C(C)OCCN(OC(=O)Oc2ccccc2)C(=O)Oc2ccccc2)c(=O)[nH]c1=O (centres undefined) |  |  | 16.3 µM (inactive) | 18.3 µM (inactive) | 16.9 µM (inactive) | 17.3 µM (inactive) | 19.1 µM (inactive) | 19.8 µM (inactive) |  | 19.5 µM (inactive) |  | 17.2 µM (inactive) | 14.3 µM (inactive) | 19 µM (inactive) | 16.3 µM (inactive) | 14.5 µM (inactive) | 14.9 µM (inactive) | 16.1 µM (inactive) | 19.3 µM (inactive)
O=C1C=CC(O)C2C1CC13SSC4(CC5C(=O)C=CC(O)C5N4C1=O)C(=O)N23 (centres undefined) | 0.308 µM (active) | 3.2 µM (inactive) | 0.208 µM (active) | 0.155 µM (active) | 0.0545 µM (active) |  | 0.151 µM (active) | 0.0601 µM (active) | 0.33 µM (active) | 0.281 µM (active) | 0.0579 µM (active) | 0.0634 µM (active) | 0.412 µM (active) | 0.234 µM (active) | 0.106 µM (active) | 0.0453 µM (active) | 1.37 µM (inactive) | 0.0426 µM (active) | 
Nc1nc(NCC2(CO)CC2)cc(=O)[nH]1 | > 100 µM (inactive) | > 100 µM (inactive) | > 100 µM (inactive) | > 100 µM (inactive) | > 100 µM (inactive) | > 100 µM (inactive) |  | > 100 µM (inactive) | > 100 µM (inactive) | > 100 µM (inactive) | > 100 µM (inactive) | > 100 µM (inactive) | > 100 µM (inactive) | > 100 µM (inactive) | > 100 µM (inactive) | > 100 µM (inactive) | > 100 µM (inactive) | > 100 µM (inactive) | 
CC(C)[C@H]1CO[C@]2(C)[C@@H]3CN(Cc4ccccc4)C[C@@H]3C(=O)N12 | > 100 µM (inactive) |  | > 100 µM (inactive) | > 100 µM (inactive) |  |  | > 100 µM (inactive) | > 100 µM (inactive) | > 100 µM (inactive) |  |  |  | > 100 µM (inactive) | > 100 µM (inactive) | > 100 µM (inactive) | > 100 µM (inactive) | > 100 µM (inactive) | > 100 µM (inactive) | 
COC(=O)C1CC2(C)C=CC1N(C(=O)OCc1ccccc1)C2 (centres undefined) | > 100 µM (inactive) | > 100 µM (inactive) | 51.5 µM (inactive) | > 100 µM (inactive) | 41.3 µM (inactive) | > 100 µM (inactive) | > 100 µM (inactive) | > 100 µM (inactive) | > 100 µM (inactive) | > 100 µM (inactive) | > 100 µM (inactive) | > 100 µM (inactive) | 34.8 µM (inactive) | 58.1 µM (inactive) | 59.3 µM (inactive) | 30.6 µM (inactive) | > 100 µM (inactive) | 46.2 µM (inactive) | 
NC[C@H]1Nc2ccccc2[C@@H](O)C1O (some centres undefined) | > 100 µM (inactive) |  | > 100 µM (inactive) | > 100 µM (inactive) | > 100 µM (inactive) | > 100 µM (inactive) | > 100 µM (inactive) | > 100 µM (inactive) | > 100 µM (inactive) | > 100 µM (inactive) | > 100 µM (inactive) | > 100 µM (inactive) | > 100 µM (inactive) | > 100 µM (inactive) | > 100 µM (inactive) |  | > 100 µM (inactive) | > 100 µM (inactive) | > 100 µM (inactive)
O=C(O)c1cc2ccccc2c(/N=N/c2ccc(S(=O)(=O)Nc3nccs3)cc2)c1O | > 100 µM (inactive) |  | > 100 µM (inactive) | > 100 µM (inactive) | > 100 µM (inactive) | > 100 µM (inactive) | > 100 µM (inactive) | > 100 µM (inactive) | > 100 µM (inactive) | > 100 µM (inactive) |  | > 100 µM (inactive) | > 100 µM (inactive) | > 100 µM (inactive) | > 100 µM (inactive) | > 100 µM (inactive) | > 100 µM (inactive) | > 100 µM (inactive) | > 100 µM (inactive)
